# In US10766869B2, “Triazoles for the treatment of demyelinating dieases” (Vertex Pharmaceuticals Incorporated, priority 2015, dated 2020):
# Like-named read-outs stand apart in the source and are kept apart here.
# System: primary rat mixed cortical cells
# Assay: In vitro myelination assay (MBP positive myelin strands, fold myelin pixels above background)
# Type: cell-based
# Settings: Rattus norvegicus; for fold induction at 1 µM: 1.0 μM compound; for fold induction at 10 µM: 10.0 μM compound
# Outline: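 Mixed cortical culture, P1 rat, 87,500-95,000 cells/well; compound present from seeding, refreshed days 6 and 10; 14 d, 37 °C, 5% CO2. Day 14: PFA fix, anti-MBP + Hoechst. Read-out: fold MBP myelin pixels over untreated, tested at 1.0 and 10.0 μM.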
# [1] = relative to baseline of no added compound, read-out: Fold myelin pixels above background
# [2] = read-out: Fold myelin pixels above background relative to baseline of no added compound
# [3] = relative to baseline of no added compound, read-out: Fold myelin pixels above background, 1.0 μM
# [4] = relative to baseline of no added compound, read-out: Fold myelin pixels above background, 10.0 μM
structure (smiles),measurement,setting,value
"Cc1cc(Nc2ncn(-c3ccc(F)c(F)c3)n2)cc(N2CCN(C3(C)COC3)CC2)c1 [Compound 633, 1-(3,4-difluorophenyl)-N-[3-methyl-5-[4-(3-methyloxetan-3-yl)piperazin-1-yl]phenyl]-1,2,4-triazol-3-amine]",fold induction at 1 µM,[1],10 to 100
same,fold induction at 10 µM,[1],10 to 100
"Cc1cc(Nc2ncn(-c3ccccn3)n2)cc(N2CCCN(C3COC3)CC2)c1 [Compound 609, N-[3-methyl-5-[4-(oxetan-3-yl)-1,4-diazepan-1-yl]phenyl]-1-(2-pyridyl)-1,2,4-triazol-3-amine]",fold induction at 1 µM,[1],100 to 1000
same,fold induction at 10 µM,[1],100 to 1000
"CC(F)(F)c1cc(Nc2ncn(-c3ccc(F)c(F)c3)n2)nc(N2CCN(C3COC3)CC2)c1 [Compound 579, 4-(1,1-difluoroethyl)-N-[1-(3,4-difluorophenyl)-1,2,4-triazol-3-yl]-6-[4-(oxetan-3-yl)piperazin-1-yl]pyridin-2-amine]",fold induction at 1 µM,[1],1 to 10
same,fold induction at 10 µM,[1],1 to 10
"Cc1cc(NCC2CC2)cc(Nc2ncn(-c3cc(F)cc(F)c3)n2)c1 [Compound 942, N3-(cyclopropylmethyl)-N1-[1-(3,5-difluorophenyl)-1,2,4-triazol-3-yl]-5-methyl-benzene-1,3-diamine]",fold induction at 1 µM,[2],1 to 10
same,fold induction at 10 µM,[2],≤ 1
"Cc1cc(NCC2COCCN2C)cc(Nc2ncn(-c3cc(F)cc(F)c3)n2)c1 (stereo not shown) [Compound 1062, N1-[1-(3,5-difluorophenyl)-1,2,4-triazol-3-yl]-5-methyl-N3-[(4-methylmorpholin-3-yl)methyl]benzene-1,3-diamine]",fold induction at 1 µM,[2],10 to 100
same,fold induction at 10 µM,[2],≤ 1
"Cc1cc(Nc2ncn(-c3cc(F)cc(F)c3)n2)cc(N2CCCC(N3CCOCC3)C2)c1 (stereo not shown) [Compound 911, 1-(3,5-difluorophenyl)-N-[3-methyl-5-(3-morpholino-1-piperidyl)phenyl]-1,2,4-triazol-3-amine]",fold induction at 1 µM,[2],1 to 10
same,fold induction at 10 µM,[2],1 to 10
"c1ccc(-n2cnc(Nc3cc(C4CC4)cc(N4CCN(C5COC5)CC4)c3)n2)cc1 [Compound 47, N-[3-cyclopropyl-5-[4-(oxetan-3-yl)piperazin-1-yl]phenyl]-1-phenyl-1,2,4-triazol-3-amine]",fold induction at 1 µM,[3],100 to 1000
same,fold induction at 10 µM,[4],≤ 1
"COc1ccc(-n2cnc(Nc3cc(C)cc(N4CC(N5CCOCC5)C4)c3)n2)cc1 [Compound 841, 1-(4-methoxyphenyl)-N-[3-methyl-5-(3-morpholinoazetidin-1-yl)phenyl]-1,2,4-triazol-3-amine]",fold induction at 1 µM,[2],1 to 10
same,fold induction at 10 µM,[2],10 to 100
"Cc1cc(Nc2ncn(-c3cccc(F)c3F)n2)cc(N2CCN(C3COC3)CC2)c1 [Compound 445, 1-(2,3-difluorophenyl)-N-[3-methyl-5-[4-(oxetan-3-yl)piperazin-1-yl]phenyl]-1,2,4-triazol-3-amine]",fold induction at 1 µM,[1],10 to 100
same,fold induction at 10 µM,[1],10 to 100
"CC(=O)N1CCC(c2cc(C)cc(Nc3ncn(-c4ccccc4)n3)c2)CC1 [Compound 194, 1-[4-[3-methyl-5-[(1-phenyl-1,2,4-triazol-3-yl)amino]phenyl]-1-piperidyl]ethanone]",fold induction at 1 µM,[3],1000 to 10000
same,fold induction at 10 µM,[4],≤ 1
"Cc1cc(Nc2ncn(-c3cc(F)cc(F)c3)n2)cc(NC2COC2)c1 [Compound 240, N3-[1-(3,5-difluorophenyl)-1,2,4-triazol-3-yl]-5-methyl-N1-(oxetan-3-yl)benzene-1,3-diamine]",fold induction at 1 µM,[3],100 to 1000
same,fold induction at 10 µM,[4],1 to 10
"COc1cccc(-n2cnc(Nc3cc(C)cc(N4CCN(C5COC5)CC4)c3)n2)c1 [Compound 86, 1-(3-methoxyphenyl)-N-[3-methyl-5-[4-(oxetan-3-yl)piperazin-1-yl]phenyl]-1,2,4-triazol-3-amine]",fold induction at 1 µM,[3],100 to 1000
same,fold induction at 10 µM,[4],100 to 1000
"CCOC(=O)C1CCN(c2cc(C)cc(Nc3ncn(-c4cc(F)cc(F)c4)n3)n2)CC1 [Compound 565, ethyl 1-[6-[[1-(3,5-difluorophenyl)-1,2,4-triazol-3-yl]amino]-4-methyl-2-pyridyl]piperidine-4-carboxylate]",fold induction at 1 µM,[1],≤ 1
same,fold induction at 10 µM,[1],≤ 1
"Cc1cc(Nc2ncn(-c3cc(F)cc(F)c3)n2)cc(N2C[C@H]3C[C@@H]2CN3C)c1 [Compound 459, 1-(3,5-difluorophenyl)-N-[3-methyl-5-[(1R,4R)-5-methyl-2,5-diazabicyclo[2.2.1]heptan-2-yl]phenyl]-1,2,4-triazol-3-amine]",fold induction at 1 µM,[1],10 to 100
same,fold induction at 10 µM,[1],≤ 1
"Cc1cc(Nc2ncn(-c3cnccn3)n2)cc(C2(C)CN(C)C(=O)O2)c1 (stereo not shown) [Compound 846, 3,5-dimethyl-5-[3-methyl-5-[(1-pyrazin-2-yl-1,2,4-triazol-3-yl)amino]phenyl]oxazolidin-2-one]",fold induction at 1 µM,[2],10 to 100
same,fold induction at 10 µM,[2],1 to 10
"Cc1cc(Nc2ncn(-c3cc(F)cc(F)c3)n2)cc(N2CC(N3CCC(F)CC3)C2)c1 [Compound 617, 1-(3,5-difluorophenyl)-N-[3-[3-(4-fluoro-1-piperidyl)azetidin-1-yl]-5-methyl-phenyl]-1,2,4-triazol-3-amine]",fold induction at 1 µM,[1],10 to 100
same,fold induction at 10 µM,[1],10 to 100
"Cc1cc(Nc2ncn(-c3cc(F)cc(F)c3)n2)nc(N2CC(C3COC3)C2)c1 [Compound 563, N-[1-(3,5-difluorophenyl)-1,2,4-triazol-3-yl]-4-methyl-6-[3-(oxetan-3-yl)azetidin-1-yl]pyridin-2-amine]",fold induction at 1 µM,[1],≤ 1
same,fold induction at 10 µM,[1],1 to 10
"Fc1ccc(-n2cnc(Nc3cc(C(F)(F)F)cc(N4CCN(C5COC5)CC4)n3)n2)cc1 [Compound 728, N-[1-(4-fluorophenyl)-1,2,4-triazol-3-yl]-6-[4-(oxetan-3-yl)piperazin-1-yl]-4-(trifluoromethyl)pyridin-2-amine]",fold induction at 1 µM,[1],10 to 100
same,fold induction at 10 µM,[1],≤ 1
"Cc1cc(Nc2ncn(-c3cncc(F)c3)n2)cc(N2CCOCC2)c1 [Compound 427, 1-(5-fluoro-3-pyridyl)-N-(3-methyl-5-morpholino-phenyl)-1,2,4-triazol-3-amine]",fold induction at 1 µM,[1],100 to 1000
same,fold induction at 10 µM,[1],100 to 1000
"COCC1CCN(c2cc(C)cc(Nc3ncn(-c4ccccn4)n3)c2)CC1 [Compound 211, N-[3-[4-(methoxymethyl)-1-piperidyl]-5-methyl-phenyl]-1-(2-pyridyl)-1,2,4-triazol-3-amine]",fold induction at 1 µM,[3],10 to 100
same,fold induction at 10 µM,[4],100 to 1000
"COCCCCN1CCN(c2cc(C)cc(Nc3ncn(-c4cc(F)cc(F)c4)n3)c2)CC1 [Compound 1001, 1-(3,5-difluorophenyl)-N-[3-[4-(4-methoxybutyl)piperazin-1-yl]-5-methyl-phenyl]-1,2,4-triazol-3-amine]",fold induction at 1 µM,[2],10 to 100
same,fold induction at 10 µM,[2],1 to 10
"CCc1cc(Nc2ncn(-c3ccc(F)c(F)c3)n2)cc(N2CC(N3CCOCC3)C2)c1 [Compound 198, 1-(3,4-difluorophenyl)-N-[3-ethyl-5-(3-morpholinoazetidin-1-yl)phenyl]-1,2,4-triazol-3-amine]",fold induction at 1 µM,[3],100 to 1000
same,fold induction at 10 µM,[4],10 to 100
"Cc1cc(Nc2ncn(-c3ccccc3)n2)cc(N2CCN(C3(C)COC3)CC2)c1 [Compound 436, N-[3-methyl-5-[4-(3-methyloxetan-3-yl)piperazin-1-yl]phenyl]-1-phenyl-1,2,4-triazol-3-amine]",fold induction at 1 µM,[1],1000 to 10000
same,fold induction at 10 µM,[1],100 to 1000
